As a reminder, the GI50 is the concentration that inhibits growth by half. What is called fraction unbound is free concentration divided by total concentration.

Some results are limits rather than exact numbers.

The record followed here is publication PMC11078746 (Nature, 2024).

Data set [1] relates to LIM2405. The data set can be described thus: CFA 10-14 day clonogenic assay. In kind it is cell-based. The note with it: Homo sapiens.
A further data set relates to EN. The data set can be described thus: CFA 10-14 day clonogenic assay. In kind it is cell-based. Conditions: Homo sapiens.
In another data set the test system is HEC1A. Put plainly: 4 day proliferation assay (CellTiter-Glo). The note with it: Homo sapiens, HEC-1-A, 96 h, read-out: 4 day assay GI50. A general note: In ATP-based viability assays light output follows the ATP content of the culture.
The test system of the next data set is NUGC3. The data set can be described thus: CFA 10-14 day clonogenic assay. The note with it: Homo sapiens, NUGC-3. In kind it is cell-based.
The test system of another data set is JHUEM2. Put plainly: CFA 10-14 day clonogenic assay. In kind it is cell-based. The note with it: Homo sapiens.
The test system of the next data set is OVK18. Put plainly: CFA 10-14 day clonogenic assay. In kind it is cell-based. The note with it: Homo sapiens.
Another data set relates to HCT116. Put plainly: CFA 10-14 day clonogenic assay. It is filed as cell-based. Conditions: Homo sapiens, HCT-116.
For data set [2], the system named is LIM2405. Put plainly: 4 day proliferation assay (CellTiter-Glo). Conditions: Homo sapiens, 96 h, read-out: 4 day assay GI50.
The subject of a further data set is SNUC5. The data set can be described thus: 4 day proliferation assay (CellTiter-Glo). The note with it: Homo sapiens, 96 h, read-out: 4 day assay GI50.
In another data set the test system is MSI cancer cells. The data set can be described thus: Clonogenic assay, 10-to-14-day. In kind it is cell-based. Conditions: Homo sapiens, 10-to-14-day clonogenic assay.
The subject of another data set is HEC6. The data set can be described thus: 4 day proliferation assay (CellTiter-Glo). The note with it: Homo sapiens, HEC-6, 96 h, read-out: 4 day assay GI50.
The next data set has as its system TOV21G. Put plainly: CFA 10-14 day clonogenic assay. It is filed as cell-based. The note with it: Homo sapiens.
In a further data set the test system is HEC1B. Put plainly: 4 day proliferation assay (CellTiter-Glo). The note with it: Homo sapiens, HEC-1B, 96 h, read-out: 4 day assay GI50.
Another data set concerns CW2. Put plainly: CFA 10-14 day clonogenic assay. It is filed as cell-based. The note with it: Homo sapiens, CW-2.
The next data set relates to HCT116 cells. The data set can be described thus: Cell cycle analysis by flow cytometry. It is filed as cell-based, human. Conditions: 10 µM for 24 h. The protocol:
About 2 × 10^6 cells were collected by trypsin and washed once with PBS. Cells were pelleted and fixed in 100 µl 4% formaldehyde (Sigma-Aldrich, 47608) for 15 min at room temperature. Cells were washed by centrifugation with an excess of 1× PBS. Pellets were resuspended in 100 µl 1× PBS, then 900 µl of ice-cold methanol (Sigma-Aldrich, 34860) was added drop by drop while vortexing. Cells were incubated for 10 min on ice to permeabilize them. Cells were washed by centrifugation with excess of 1× PBS, pellets were resuspended in 100 µl anti-phosphorylated-histone H3 Ser10 conjugated to PE (Cell Signalling Technology, 5764) antibodies diluted 1:50 in 0.5% BSA PBS buffer and incubated for 1 h at room temperature protected from the light. […] Stained cells were analysed on the Cytoflex flow cytometer (Beckman Coulter).
Data were collected in 10^5 particle units and analysed with CytExpert v.2.4 software. […] These singlets were then analysed for DAPI (DNA content) and PE (phosphorylated histone H3 Ser10) staining intensities. Data were analysed to show the percentage of nuclei in the G1, S and G2/M phases using the DAPI channel and the percentage of cells specifically in G2 or M phase using the PE channel.
A general note: A flow cytometer gives signals particle by particle.

Another data set deals with TGBC11TKB. Put plainly: 4 day proliferation assay (CellTiter-Glo). The note with it: Homo sapiens, 96 h, read-out: 4 day assay GI50.
For a further data set, the target named is PXR (Homo sapiens, UniProt O75469). Put plainly: PXR activation. In kind it is in vitro ADME.
The next data set deals with SNUC4. Put plainly: 4 day proliferation assay (CellTiter-Glo). Conditions: Homo sapiens, SNU-C4, 96 h, read-out: 4 day assay GI50.
Another data set concerns IM95. Put plainly: CFA 10-14 day clonogenic assay. It is filed as cell-based. The note with it: Homo sapiens.
A further data set concerns SNU1. Put plainly: CFA 10-14 day clonogenic assay. In kind it is cell-based. The note with it: Homo sapiens.
The next data set relates to SNGM. Put plainly: 4 day proliferation assay (CellTiter-Glo). The note with it: Homo sapiens, 96 h, read-out: 4 day assay GI50.
The next data set is described as follows: Mouse unbound fraction. It is filed as in vitro ADME. The note with it: blood.
The test system of the next data set is HEC251. The data set can be described thus: 4 day proliferation assay (CellTiter-Glo). Conditions: Homo sapiens, HEC-251, 96 h, read-out: 4 day assay GI50.
The subject of another data set is CAL33. The data set can be described thus: 4 day proliferation assay (CellTiter-Glo). Conditions: Homo sapiens, CAL-33, 96 h, read-out: 4 day assay GI50.

Sequence of PXR (O75469 whole entry, species assumed): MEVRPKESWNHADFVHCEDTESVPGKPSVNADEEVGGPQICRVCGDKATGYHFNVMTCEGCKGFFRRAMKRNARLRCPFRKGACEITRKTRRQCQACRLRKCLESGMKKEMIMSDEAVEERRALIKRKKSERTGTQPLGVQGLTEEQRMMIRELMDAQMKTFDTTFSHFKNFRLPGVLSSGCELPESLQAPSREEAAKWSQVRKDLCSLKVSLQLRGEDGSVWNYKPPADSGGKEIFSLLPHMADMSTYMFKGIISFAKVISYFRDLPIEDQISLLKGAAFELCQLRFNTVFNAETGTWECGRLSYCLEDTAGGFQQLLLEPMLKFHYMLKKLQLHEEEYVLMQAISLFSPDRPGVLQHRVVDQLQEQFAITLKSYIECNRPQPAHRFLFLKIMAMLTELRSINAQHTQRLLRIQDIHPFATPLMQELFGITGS

For the compound `CCc1c(N2CCN(C(=O)c3ncnc(C)c3O)CC2)c(=O)n2nc(C3=CCOCC3)nc2n1CC(=O)Nc1ccc(C(F)(F)F)cc1Cl` [HRO761], the GI50 with LIM2405 [1] was 452 nM; in the data set on EN, at least 10000 nM; in the data set with HEC1A, at least 10000 nM; in the data set on NUGC3, at least 10000 nM; in the data set on JHUEM2 it was 929 nM; in the data set with OVK18, 150 nM. For the same compound, the GI50 with HCT116 is 59 nM; with LIM2405 [2] it was 1530 nM; with SNUC5, 7240 nM; in the data set with MSI cancer cells, 50 to 1000 nM; in the data set with HEC6 it was 365 nM; with TOV21G, 1310 nM. Also, the GI50 with HEC1B was at least 10000 nM; in the data set on CW2 it was 68 nM; with TGBC11TKB, 178 nM; in the data set with SNUC4, 145 nM; in the data set with IM95 it was 255 nM; with SNU1, at least 10000 nM. Moreover, the GI50 in the data set on SNGM, in the data set with HEC251 and with CAL33 was at least 10000 nM in each case. The cell cycle effect entry with HCT116 cells is “potent G2 cell cycle arrest”. Moreover, the PXR activation entry at PXR is listed as “No PXR”. In “Mouse unbound fraction”, this compound gave a fraction unbound of 0.193.
